Experimental data taken from patent EP1107982B1, “[…] COMPLEXES OF 1,2-(CIS)-DIOL CYCLIC PEPTIDES” (Eli Lilly & Company, priority 1998, dated 2000).
*1 amine or outer side, *2 acyl side, *3 side chain or, on linkers, in order; H or OH if unused. Where a SMILES comes first, the peptide text is derived from it. Bridges are numbered along the chain shown (N, C = ends). [ ]: non-standard residue; d: D form. The star is where a group is joined. pTerphenylCO(4''-OnC5H11) = CCCCCOc1ccc(-c2ccc(-c3ccc(C(=O)*)cc3)cc2)cc1; Orn(4R-OH,5R-OH) = O=C([C@H](C[C@@H](O)[C@@H](O)N[*:3])N[*:1])[*:2]; hTyr(3S-OH,4S-OH) = N[C@H](C(=O)O)[C@H](O)[C@@H](O)c1ccc(O)cc1; Pro(3S-OH,4S-Me) = C[C@H]1CN[C@H](C(=O)O)[C@H]1O; Hyp = O=C(O)[C@@H]1C[C@@H](O)CN1

Key:
[1] = Solubility of Compound C1 in the presence of m-APBA (suspension, centrifugation, HPLC of supernatant); assay type: physicochemical; conditions: for appearance of aqueous solution: 30 mg/ml
Procedure: (§1) Unless indicated otherwise, all chemicals can be acquired from commercial sources (i.e., Aldrich Chemical, Sigma, etc.) in reagent grade or better. Centrifugation was performed using an IEC benchtop clinical centrifuge equipped with six-place swinging-bucket rotor (for samples > 1.5 ml) and an Eppendorf tabletop centri fuge model 5415C equipped with standard 18-place rotor (for samples ≤ 1.5 ml). HPLC analyses were performed using a Hewlett Packard Liquid Chromatograph Model 1090 equipped with a 0.46 x 25 cm Zorbax™ SB-C8 column. All injections were 10 µl, followed by gradient elution from 40-100% acetonitrile (AcN) over 25 minutes and UV detection at 280 nm. Unless otherwise stated, samples were diluted in 0.25 N acetic acid/AcN prior to injection to facilitate decomplexation and ensure solubility in the HPLC solvent system. All alkaline pH adjustments were made by addition of a 1:1 mixture of ammonium hydroxide and 50% sodium hydroxide. Measurements were taken with a Beckman φ40 pH meter calibrated with pH 7 and pH 10 standards.
Crude C1 was suspended at 50 mg/ml (65% potency: 32.5 mg/ml, or 28.5 mM) in 4 ml of either 100 mM m-APBA or 100 mM ammonium bicarbonate (control) at pH 5.0 and pH 9.0. The samples were stirred at room temperature for 2 hours, at which time aliquots were removed and assayed both before and after centrifugation for five minutes at […]. All samples were diluted 50-fold prior to HPLC analysis.
At low pH (≤ 8.0), solid suspensions of Compound C1 in m-APBA and in ammonium bicarbonate were visually identical. Both were opaque and contained varying amounts of solid, insoluble material. However, when the pH was adjusted to 9.0 dramatic differences in appearance between the two samples was observed within approximately 30 minutes. The aqueous ammonium bicarbonate control was beige in color and completely opaque; whereas, the sample containing m-APBA turned a transparent, dark brown. When the mixtures were subjected to centrifugation for 5 minutes at 16,000 x g and the resulting supernatants quantified by HPLC analysis, the concentration of C1 present in the m-APBA supernatant was 23.76 mg/ml (94% of that in the original suspension) and only 2.27 mg/ml (10% of the original suspension) was present in the ammonium bicarbonate control supernatant.

[2] = Stability of Compound C1 in m-APBA at alkaline pH (HPLC main peak purity); assay type: physicochemical
Procedure: as §1
Compound C1 was suspended at 100 mg/ml (65% potency: 65 mg/ml (57 mM) in either 250 mM m-APBA or water (control). Separate samples were adjusted to pH 8.0, 8.5, 9.0, 9.5 and 10.0. Aliquots for time-point analysis were removed and diluted 100-fold in 100 mM acetic acid/methanol prior to HPLC injection. Stability was assessed by analysis of main peak purity, since degradation products are known to elute within the HPLC chromatographic window.

[3] = m-APBA replaced with boric acid (borate complex)

## CCCCCOc1ccc(-c2ccc(-c3ccc(C(=O)N[C@H]4C[C@@H](O)[C@@H](O)NC(=O)[C@@H]5[C@@H](O)[C@@H](C)CN5C(=O)[C@H]([C@@H](C)O)NC(=O)[C@H]([C@H](O)[C@@H](O)c5ccc(O)cc5)NC(=O)[C@@H]5C[C@@H](O)CN5C(=O)[C@H]([C@@H](C)O)NC4=O)cc3)cc2)cc1 [Compound C1] ({pTerphenylCO(4''-OnC5H11)}-[Orn(4R-OH,5R-OH)]T[Hyp][hTyr(3S-OH,4S-OH)]T[Pro(3S-OH,4S-Me)]; lactam 1-C)
[1]; 100 mM ammonium bicarbonate control, pH 9.0
  concentration in supernatant as % of the original suspension: 10%
[1]; 100 mM ammonium bicarbonate control, pH 9.0, room temperature, crude C1 suspended at 50 mg/ml (32.5 mg/ml), after centrifugation, read-out: concentration of C1 present in the supernatant
  solubility thermodynamic at 2 h: 2270 µg/mL
[1]; 100 mM m-APBA, pH 9.0
  concentration in supernatant as % of that in the original suspension: 94%
[1]; 100 mM m-APBA, pH 9.0, room temperature, crude C1 suspended at 50 mg/ml (32.5 mg/ml), after centrifugation
  concentration of C1 present in the supernatant: 23760 µg/mL
[1]; boronate complex
  appearance of aqueous solution: transparent solution
[1]; in the presence of m-aminophenyl boronic acid at pH 9.0 in aqueous solution
  increase in solubility: 10 fold
[1]; [3]
  solubility of complex: increased solubility
[1]; m-APBA replaced with p-carboxyphenyl boronic acid (boronate complex)
  solubility of complex: increased solubility
[1]; non-complexed
  appearance of aqueous solution: opaque slurry
[2]; 250 mM m-APBA, pH 9.5, after 17 hours
  purity (main peak): > 70%
[2]; aqueous control (water), pH 9.5, after 9 hours
  purity (main peak, of the total peak area): less than 70%
[2]; in the presence of m-APBA, alkaline pH
  chemical stability in comparison to the aqueous control: enhanced chemical stability
[2]; [3]
  stability of complex: very stable
[2]; p-carboxyphenylboronic acid used instead of m-APBA
  stability of complex: did not appear to be as stable
